Results on 2 compounds are retold here after publication PMC10243163, “A frog‐derived antimicrobial peptide as a potential anti‐biofilm agent in combating Staphylococcus aureus skin infection” (Journal of Cellular and Molecular Medicine, 2023).

Converted amounts (≈) assume the structure as drawn. Positions of bridges follow the written chain, without caps; N, C: chain ends. Residues, ends and D or L forms follow the SMILES beside them. Where only a bound is given, the exact number is not on record here.

Series [1] deals with MRSA NCTC 12493. The experiment in a line: Ex vivo porcine skin infection model. Also on record: species or system Methicillin‐resistant S. aureus. The settings on record: vancomycin 8 μM, 4 h. On the procedure: The antibacterial efficacy of OG9 and OG9c‐De‐NH2 was further evaluated in an ex vivo porcine skin model, as reported.[27] The porcine skin was shaved and cleaned with 70% ethanol and dd H2O. The polyethylene tubing was glued to the cleaned skin surface with cyanoacrylate glue. Exponential or persister cells were inoculated to infect each skin sample. After 15 min of incubation at 37°C, each skin sample was treated with peptides at concentrations of 1 × or 10 × MIC or vancomycin (8 μM). After another 4 h of incubation, each tubing well was washed with PBS. Ten microliters of the mixture in each well was diluted with PBS buffer and spotted on the agar plate. The number of viable bacteria cells was counted after overnight incubation. The experiments were conducted in three independent runs.

The subject of series [2] is E. coli ATCC 8739. Type of series: cell-based, Escherichia coli. Conditions: ATCC 8739, 24 h. On the procedure:
(§1) Peptide solutions were first mixed with bacterial cultures (5 × 10^5 CFU/mL) and incubated at 37°C for 24 h. The planktonic bacterial cells were gently removed by washing with PBS the next day, and methanol was utilised to fix the biofilm. Crystal violet (0.1% v/v), PBS and acetic acid (30%, v/v) were subsequently used to stain biofilm, remove remaining stains and re‐dissolve stains, respectively. The absorbance was determined at 595 nm. The experiments were conducted in three independent runs.

Series [3] concerns S. aureus ATCC 6538. It counts as cell-based, Staphylococcus aureus. Conditions: ATCC 6538, 24 h. On the procedure:
(§2) The bacterial culture (5 × 10^5 CFU/mL) was cultured in a sterile 96‐well plate for 24 h to generate mature biofilms. The planktonic bacteria were removed by washing three times with sterile PBS buffer. Then, fresh broth with different peptide concentrations was added to each well and further incubated for another 24 h. Then, the plate was stained with crystal violet. The stain was solubilised in 30% acetic acid, and the absorbance was measured at 595 nm. The experiments were conducted in three independent runs.

Series [4] has as its system Gram‐positive and Gram‐negative test bacteria. Type of series: cell-based. As to the method:
(§3) Antimicrobial assays were conducted using standard broth micro‐dilutions, as mentioned previously.[11] Gram‐positive bacteria S. aureus (ATCC 6538), Methicillin‐resistant S. aureus (MRSA; NCTC 12493), […] (NCTC 12697), Gram‐negative bacteria Escherichia coli (ATCC 8739), Klebsiella pneumoniae (ATCC 43816), Pseudomonas aeruginosa (ATCC 9027), Acinetobacter baumannii (ATCC BAA 747), and yeast, Candida albicans (ATCC 10231) were used in the test. The experiments were conducted in three independent runs.

The subject of series [5] is MRSA NCTC 12493. Type of series: cell-based, Methicillin‐resistant S. aureus. The settings on record: NCTC 12493, 24 h. On the procedure:
as §2

Series [6] relates to MRSA NCTC 12493. It counts as cell-based, Methicillin‐resistant S. aureus. Conditions: NCTC 12493, 24 h. On the procedure:
as §1
The source holds these as a separate data set.

Series [7] relates to horse erythrocytes. As to the kind of experiment: Haemolytic activity. Type of series: cell-based. The settings on record: 128 μM peptide; horse erythrocytes 2% v/v, 37°C, 2 h; 0.1% Triton X‐100 positive control; absorbance 570 nm; three independent runs. On the procedure: The haemolytic activity of peptides was conducted using horse erythrocytes (2%, v/v). Peptide solutions were mixed with washed horse erythrocyte suspension at 37°C for 2 h. Triton X‐100 (0.1%) was used as a positive control. The mixture was then centrifuged at 930 g for 5 min. The absorbance of the supernatants was detected at 570 nm. The haemolysis rate was calculated using the formula: Haemolysis%=Sample group−negative group/positive group−negative group×100%.
This experiment was performed in three independent runs.

For series [8], the system named is P. aeruginosa ATCC 9027. Type of series: cell-based, Pseudomonas aeruginosa. The settings on record: ATCC 9027, 24 h. As to the method: as §1
In series [9] the test system is S. aureus ATCC 6538. Type of series: cell-based, Staphylococcus aureus. Conditions: ATCC 6538, 24 h. As to the method:
as §1
This is another data set of the same source.

Series [10] concerns E. coli ATCC 8739. Type of series: cell-based, Escherichia coli. Conditions: ATCC 8739, 24 h. On the procedure: as §2
The source holds these as a separate data set.

In series [11] the test system is P. aeruginosa ATCC 9027. It counts as cell-based, Pseudomonas aeruginosa. Conditions: ATCC 9027, 24 h. On the procedure:
as §2
This is another data set of the same source.

The subject of series [12] is K. pneumoniae ATCC 43816. Type of series: cell-based, Klebsiella pneumoniae. Conditions: ATCC 43816, 24 h. As to the method: as §2
Series [13] relates to Gram‐positive and Gram‐negative test bacteria. Type of series: cell-based. The settings on record: geometric mean of MICs against the three Gram‐negative strains.
The test system of series [14] is E. faecalis NCTC 12697. It counts as cell-based. The settings on record: NCTC 12697, 24 h. On the procedure: as §1
The test system of series [15] is E. faecalis NCTC 12697. It counts as cell-based. The settings on record: NCTC 12697, 24 h. As to the method:
as §2
This is another data set of the same source.

Series [16] deals with K. pneumoniae ATCC 43816. Type of series: cell-based, Klebsiella pneumoniae. The settings on record: ATCC 43816, 24 h. As to the method:
as §1
The source holds these as a separate data set.

The test system of series [17] is K. pneumoniae ATCC 43816. It counts as cell-based, Klebsiella pneumoniae. As to the method: as §3
For series [18], the system named is S. aureus ATCC 6538. It counts as cell-based, Staphylococcus aureus. As to the method:
as §3

The subject of series [19] is MRSA NCTC 12493. Type of series: cell-based, Methicillin‐resistant S. aureus. On the procedure: as §3
Series [20] concerns P. aeruginosa ATCC 9027. Type of series: cell-based, Pseudomonas aeruginosa. As to the method: as §3
The test system of series [21] is E. faecalis NCTC 12697. It counts as cell-based.
In series [22] the test system is C. albicans ATCC 10231. It counts as cell-based, Candida albicans. As to the method:
as §3

Series [23] has as its system E. coli ATCC 8739. It counts as cell-based, Escherichia coli. On the procedure: as §3

Take `CN[C@H](CC(C)C)C(=O)N[C@H]1C(=O)N[C@@H](CC(N)=O)C(=O)N[C@H]2C(=O)N[C@H]3C(=O)N[C@H](C(=O)N[C@H](C(=O)O)c4cc(O)cc(O)c4-c4cc3ccc4O)[C@H](O)c3ccc(c(Cl)c3)Oc3cc2cc(c3O[C@@H]2O[C@H](CO)[C@@H](O)[C@H](O)[C@H]2O[C@H]2C[C@](C)(N)[C@H](O)[C@H](C)O2)Oc2ccc(cc2Cl)[C@H]1O` [Vancomycin]: the “Ex vivo effect on exponential MRSA cells” value in [1] was “weak inhibiting effect”.

Consider `CC[C@H](C)[C@@H]1NC(=O)[C@H](CCCCN)NC(=O)[C@@H](NC(=O)[C@H](CC(C)C)NC(=O)[C@@H](NC(=O)[C@H](CCCCN)NC(=O)[C@@H]2CCCN2C(=O)[C@H](CC(C)C)NC(=O)[C@H](Cc2ccccc2)NC(=O)[C@H](CC(N)=O)NC(=O)[C@H](C)NC(=O)[C@H](C)NC(=O)[C@H](CC(C)C)NC(=O)CNC(=O)[C@H](C)NC(=O)[C@@H](NC(=O)[C@H](CC(C)C)NC(=O)[C@@H]2CCCN2C(=O)[C@@H](N)Cc2ccccc2)[C@@H](C)CC)[C@@H](C)CC)CSSC[C@@H](C(=O)O)NC(=O)[C@H](CCCCN)NC(=O)[C@H](CCCNC(=N)N)NC(=O)[C@H](C)NC1=O` [OG9] (H-FPLIAGLAANFLPKILCKIARKC-OH; disulfide 17-23), for which the MBIC is 32 µM in [2]; 16 µM in series [6]; >128/>128 μM in series [8]; 16 µM in series [9]; 32 µM in series [14]; >128/>128 μM in series [16]. In addition, the MBEC in series [3] is more than 128 µM; in series [5], more than 128 µM; in [10], more than 128 µM; in series [11], >128/>128 μM; in [12], >128/>128 μM; in [15], more than 128 µM. Moreover, the “GM MIC, total bacteria” value in series [4] (geometric mean of MICs against all test bacteria) came out at 12.7 µM. Also, the “GM MIC, G+” value in [4] (geometric mean of MICs against the three Gram‐positive strains) is 10.1 µM. For the same compound, the Haemolysis entry in series [7] is given as “around 85%”. For the same compound, in series [13], the “GM MIC, G−” value came out at 16 µM. Further, the MBC in [17] was 64 µM (≈ 160 µg/mL); in series [18], 8 µM (≈ 20 µg/mL); in series [19], 32 µM (≈ 80 µg/mL); in series [20], 16 µM (≈ 40 µg/mL); in series [21], 16 µM (≈ 40 µg/mL); in series [22], more than 128 µM. This compound also yielded an MBC in series [23] of 4 µM (≈ 10 µg/mL). In addition, the MIC (usually the lowest concentration found to suppress growth) in [17] was 64 µM (≈ 160 µg/mL); in [18], 4 µM (≈ 10 µg/mL); in series [19], 16 µM (≈ 40 µg/mL); in series [20], 16 µM (≈ 40 µg/mL); in series [21] it was 16 µM (≈ 40 µg/mL); in series [22], more than 128 µM. Besides, the MIC in series [23] worked out at 4 µM (≈ 10 µg/mL).
